Earlier results on 1 compound are cited in patent US8260406B2, “System and method for analyzing complex curvature of ECG curves” (Aalborg Universitet, priority 2006, dated 2012).

The data set has as its system cardiac repolarization (T-wave) in healthy subjects. Particulars: 30 min after sotalol administration; increase; p<0.05; occurring prior to QT prolongation; PCA of ECG Holter recordings.

Each structure is given as a SMILES string.

On to `CC(C)NCC(O)c1ccc(NS(C)(=O)=O)cc1` (stereo not shown) [sotalol], for which the “turbulence of repolarization velocity increased by” value is 9.02%.
